# Data reported in patent US10669258B2, “3-sulfonyl-5-aminopyridine-2,4-diol APJ agonists” (BRISTOL-MYERS SQUIBB COMPANY, priority 2016, dated 2020).
# Molecular target: T1, human APJ receptor (Homo sapiens, UniProt P35414)
# T1 construct: expressed in transfected cells; host or cells: HEK293
# T1 sequence (P35414 1-380): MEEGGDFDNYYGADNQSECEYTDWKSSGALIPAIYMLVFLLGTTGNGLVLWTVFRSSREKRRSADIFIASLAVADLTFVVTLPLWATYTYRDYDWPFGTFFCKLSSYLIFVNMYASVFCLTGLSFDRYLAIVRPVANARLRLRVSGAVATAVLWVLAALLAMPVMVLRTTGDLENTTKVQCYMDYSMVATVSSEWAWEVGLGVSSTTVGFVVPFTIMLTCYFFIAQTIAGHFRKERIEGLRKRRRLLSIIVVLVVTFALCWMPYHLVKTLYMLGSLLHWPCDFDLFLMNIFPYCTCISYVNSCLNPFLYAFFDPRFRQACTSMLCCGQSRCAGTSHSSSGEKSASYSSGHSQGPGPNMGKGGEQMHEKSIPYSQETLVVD
# Assay: Intracellular cAMP accumulation assay (APJ hcAMP, HTRF)
# Type: cell-based
# Details: HEK293 cells stably expressing human APJ receptor; inhibition of forskolin-mediated cAMP production; Table 1; read-out: hAPJ cAMP EC50 Potency range
# Outline: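 HEK293 cells stably expressing the receptor (5,000/well) treated with compound plus […] and 2 μM forskolin for 30 min at room temperature; cAMP by HTRF against a cAMP standard curve. EC50 from variable-slope sigmoidal fit; Ymax as % of (Pyr1)apelin-13 inhibition.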
row,EC50 [nM],Structure (SMILES)
1,0.01 to 10,"CCCCc1nc(O)c(S(=O)(=O)c2ccc(-c3ccc(F)nc3C)cc2)c(O)c1N1c2ccccc2CCC1C (stereo not drawn) [Example 048, 6-butyl-3-((4-(6-fluoro-2-methylpyridin-3-yl)phenyl)sulfonyl)-5-(2-methyl-3,4-dihydroquinolin-1(2H)-yl)pyridine-2,4-diol]"
2,10 to 100,"CCCCc1nc(O)c(S(=O)(=O)c2ccc(-c3ccc(F)nc3C)cc2)c(O)c1N1CCCOc2ccccc21 [Example 115, 6-butyl-5-(3,4-dihydrobenzo[b][1,4]oxazepin-5(2H)-yl)-3-((4-(6-fluoro-2-methylpyridin-3-yl)phenyl)sulfonyl)pyridine-2,4-diol]"
3,0.01 to 10,"CCN(c1ccccc1)c1c(CC2CC2)nc(O)c(S(=O)(=O)c2ccc(-c3ccccc3C(=O)N(C)C)cc2)c1O [Example 062, 4′-((6-(cyclopropylmethyl)-5-(ethyl(phenyl)amino)-2,4-dihydroxypyridin-3-yl)sulfonyl)-N,N-dimethyl-[1,1′-biphenyl]-2-carboxamide]"
4,0.01 to 10,"CCN(c1ccccc1)c1c(-c2cnn(C)c2)nc(O)c(S(=O)(=O)c2ccc(-c3ccc(F)cc3C(N)=O)cc2)c1O [Example 155, 4′-((5-(ethyl(phenyl)amino)-2,4-dihydroxy-6-(1-methyl-1H-pyrazol-4-yl)pyridin-3-yl)sulfonyl)-4-fluoro-[1,1′-biphenyl]-2-carboxamide]"
5,0.01 to 10,"CCCCc1nc(O)c(S(=O)(=O)c2ccc(-c3ccccc3C(=O)NC)cc2)c(O)c1N(C)c1ccccc1C [Example 206, 4′-((6-butyl-2,4-dihydroxy-5-(methyl(o-tolyl)amino)pyridin-3-yl)sulfonyl)-N-methyl-[1,1′-biphenyl]-2-carboxamide]"
6,0.01 to 10,"CCN(c1cccc(C#N)c1)c1c(-c2ccn(C)n2)nc(O)c(S(=O)(=O)c2ccc(-c3cccc(F)c3C(N)=O)cc2)c1O [Example 215, 4′-((5-((3-cyanophenyl)(ethyl)ami-no)-2,4-dihydroxy-6-(1-methyl-1H-pyrazol-3-yl)pyridin-3-yl)sulfonyl)-3-fluoro-[1,1′-biphenyl]-2-carboxamide]"
7,0.01 to 10,"CC(C)N(c1ccccc1)c1c(-c2ccn(C)n2)nc(O)c(S(=O)(=O)c2ccc(-c3ccccc3C(=O)NC3CC3)cc2)c1O [Example 162, N-cyclopropyl-4′-((2,4-dihydroxy-5-(isopropyl(phen-yl)amino)-6-(1-methyl-1H-pyrazol-3-yl)pyridin-3-y)sulfonyl)-[1,1′-biphenyl]-2-carboxamide]"
8,0.01 to 10,"CCN(c1ccccc1)c1c(-c2ccn(C)n2)nc(O)c(S(=O)(=O)c2ccc(-c3ccc(F)nc3C)cc2)c1O [Example 059, 5-(ethyl(phenyl)amino)-3-((4-(6-fluoro-2-methylpyridin-3-yl)phenyl)sulfonyl)-6-(1-methyl-1H-pyrazol-3-yl)pyridine-2,4-diol]"
9,0.01 to 10,"CCCCc1nc(O)c(S(=O)(=O)c2ccc(-c3ccccc3C#N)cc2)c(O)c1N(CC)c1ccccc1 [Example 083, 4′-((6-butyl-5-(ethyl(phenyl)amino)-2,4-dihydroxypyridin-3-yl)sulfonyl)-[1,1′-biphenyl]-2-carbonitrile]"
10,0.01 to 10,"CCCCc1nc(O)c(S(=O)(=O)c2ccc(-c3ccncc3C)cc2)c(O)c1N(CC)c1cccc(C#N)c1 [Example 170, 3-((2-butyl-4,6-dihydroxy-5-((4-(3-methylpyridin-4-yl)phenyl)sulfonyl)pyri-din-3-yl)(ethyl)amino)benzonitrile]"
11,0.01 to 10,"CCCCc1nc(O)c(S(=O)(=O)c2ccc(-c3ccncc3C)cc2)c(O)c1N(C)c1cccc(C#N)c1 [Example 113, 3-((2-butyl-4,6-dihydroxy-5-((4-(3-methylpyridin-4-yl)phenyl)sulfonyl)pyridin-3-yl)(methyl)amino)benzonitrile]"
12,0.01 to 10,"CCN(c1ccccc1)c1c(-c2cccc(C)c2)nc(O)c(S(=O)(=O)c2ccc(-c3ccncc3C)cc2)c1O [Example 120, 5-(ethyl(phenyl)amino)-3-((4-(3-methylpyridin-4-yl)phenyl)sulfonyl)-6-(m-tolyl)pyridine-2,4-diol]"
13,0.01 to 10,"CCN(c1ccccc1)c1c(CC2CC2)nc(O)c(S(=O)(=O)c2ccc(-c3ccc(F)nc3C)cc2)c1O [Example 051, 6-(cyclopropylmethyl)-5-(ethyl(phenyl)amino)-3-((4-(6-fluoro-2-methylpyridin-3-yl)phenyl)sulfonyl)pyridine-2,4-diol]"
14,10 to 100,"CCCCc1nc(O)c(S(=O)(=O)c2ccccc2)c(O)c1N(CC)c1ccccc1 [Example 084, 6-butyl-5-(ethyl(phenyl)amino)-3-(phenylsulfonyl)pyridine-2,4-diol]"
15,0.01 to 10,"CCCCc1nc(O)c(S(=O)(=O)c2ccc(-c3ccc(F)nc3C)cc2)c(O)c1N(CC)c1cccc(C#N)c1 [Example 178, 3-((2-butyl-5-((4-(6-fluoro-2-methylpyridin-3-yl)phenyl)sulfonyl)-4,6-dihydroxypyridin-3-yl)(ethyl)amino)benzonitrile]"
16,0.01 to 10,"CC(C)N(c1ccccc1)c1c(-c2ccn(C)n2)nc(O)c(S(=O)(=O)c2ccc(-c3ccccc3C(=O)N(C)C)cc2)c1O [Example 159, 4′-((2,4-dihydroxy-5-(isopropyl(phen-yl)amino)-6-(1-methyl-1H-pyrazol-3-yl)pyridin-3-yl)sulfonyl)-N,N-dimethyl-[1,1′-biphenyl]-2-carboxamide]"
17,0.01 to 10,"CCCCc1nc(O)c(S(=O)(=O)c2ccc(-c3ccnc(F)c3C)cc2)c(O)c1N(CC)c1ccccc1 [Example 080, 6-butyl-5-(ethyl(phenyl)amino)-3-((4-(2-fluoro-3-methylpyridin-4-yl)phenyl)sulfonyl)pyridine-2,4-diol]"
18,0.01 to 10,"CCCCc1nc(O)c(S(=O)(=O)c2ccc(-c3ccnc(F)c3C)cc2)c(O)c1N1CCCc2ccccc21 [Example 028, 6-butyl-5-(3,4-dihydroquinolin-1(2H)-yl)-3-((4-(2-fluoro-3-methylpyridin-4-yl)phenyl)sulfonyl)pyridine-2,4-diol]"
19,0.01 to 10,"CCCCc1nc(O)c(S(=O)(=O)c2ccc(-c3ccnc(F)c3C)cc2)c(O)c1N1c2ccccc2CCC1C (stereo not drawn) [167-I, 6-butyl-3-((4-(2-fluoro-3-methylpyridin-4-yl)phenyl)sulfonyl)-5-(2-methyl-3,4-dihydroquinolin-1(2H)-yl)pyridine-2,4-diol]"
20,0.01 to 10,"CCCCc1nc(O)c(S(=O)(=O)c2ccc(-c3ccccc3C(=O)N(C)C)cc2)c(O)c1N(CC)c1cccc(C#N)c1 [Example 186, 4′-((6-butyl-5-((3-cyanophenyl)(ethyl)a-mino)-2,4-dihydroxypyridin-3-yl)sulfonyl)-N,N-dimethyl-[1,1′-biphenyl]-2-carboxamide]"
21,0.01 to 10,"CCCCc1nc(O)c(S(=O)(=O)c2ccc(-c3ccnc(F)c3C)cc2)c(O)c1N(C)c1ccc(Cl)cc1 [Example 103, 6-butyl-5-((4-chlorophenyl)(methyl)amino)-3-((4-(2-fluoro-3-methylpyridin-4-yl)phenyl)sulfonyl)pyridine-2,4-diol]"
22,10 to 100,"CCCCc1nc(O)c(S(=O)(=O)c2ccc(-c3ccc(F)nc3C)cc2)c(O)c1N(C)c1ccccc1C [Example 198, 6-butyl-3-((4-(6-fluoro-2-methylpyridin-3-yl)phenyl)sulfonyl)-5-(methyl(o-tolyl)amino)pyridine-2,4-diol]"
23,0.01 to 10,"CCN(c1ccccc1)c1c(CC2CC2)nc(O)c(S(=O)(=O)c2ccc(-c3cccnc3C)cc2)c1O [Example 050, 6-(cyclopropylmethyl)-5-(ethyl(phenyl)amino)-3-((4-(2-methylpyridin-3-yl)phenyl)sulfonyl)pyridine-2,4-diol]"

# Same assay, conditions: HEK293 cells stably expressing human APJ receptor; inhibition of forskolin-mediated cAMP production; Table 2; read-out: hAPJ cAMP EC50 Potency range
row,EC50 [nM],Structure (SMILES)
1,0.01 to 10,"CC(C)N(c1ccccc1)c1c(-c2ccn(C)n2)nc(O)c(C(=O)N2CCC(c3ccc(F)cc3F)C2)c1O (stereo not drawn) [Example 209, (3-(2,4-difluorophenyl)pyrrolidin-1-yl)(2,4-dihydroxy-5-(isopropyl(phenyl)amino)-6-(1-methyl-1H-pyrazol-3-yl)pyridin-3-yl)methanone]"

# Same assay, conditions: hAPJ cAMP EC50 Potency range, HEK293 cells stably expressing human APJ receptor; inhibition of forskolin-mediated cAMP production; Table 1
row,Structure (SMILES),EC50 [nM]
1,"CCCCc1nc(O)c(C(=O)N2CCN(Cc3cccc(Cl)c3Cl)CC2)c(O)c1N(CC)c1ccccc1 [Example 074, (6-butyl-5-(ethyl(phenyl)amino)-2,4-dihydroxypyridin-3-yl)(4-(2,3-dichlorobenzyl)piperazin-1-yl)methanone]",10 to 100

# Same assay, conditions: hAPJ cAMP EC50 Potency range, HEK293 cells stably expressing human APJ receptor; inhibition of forskolin-mediated cAMP production; Table 2
row,Structure (SMILES),EC50 [nM]
1,"CCN(c1ccccc1)c1c(-c2ccn(C)n2)nc(O)c(C(=O)N2CCC(c3ncc(F)cc3F)C2)c1O (stereo not drawn) [Example 197, (3-(3,5-difluoropyridin-2-yl)pyrrolidin-1-yl)(5-(ethyl(phenyl)amino)-2,4-dihydroxy-6-(1-methyl-1H-pyrazol-3-yl)pyridin-3-yl)methanone]",0.01 to 10

# Same assay, conditions: read-out: hAPJ cAMP EC50 Potency range; HEK293 cells stably expressing human APJ receptor; inhibition of forskolin-mediated cAMP production; Table 1
row,Structure (SMILES),EC50 [nM]
1,"CCCCc1nc(O)c(C(=O)N2CCC(c3ncc(F)cc3F)C2)c(O)c1N(CC)c1ccccc1 (stereo not drawn) [Example 073, (6-butyl-5-(ethyl(phenyl)amino)-2,4-dihydroxypyridin-3-yl)(3-(3,5-difluoropyridin-2-yl)pyrrolidin-1-yl)methanone]",0.01 to 10
